Laboratory results as given in patent US10711261B2 (priority 2015, dated 2020).
“Also recorded” adds a separate entry of the source.

Key:
[1] = molecular target: recombinant human WT SOD1 (Homo sapiens, UniProt P00441); format: binding
[2] = molecular target: T1, DJ-1 (Homo sapiens, UniProt Q99497); format: binding
[3] = molecular target: T1, DJ-1; format: binding; remark: listed apart in the source
[4] = molecular target: WT DJ-1 (Homo sapiens, UniProt Q99497); format: binding
[5] = in vivo; cited from earlier work

Chain of WT DJ-1 (Q99497 whole entry): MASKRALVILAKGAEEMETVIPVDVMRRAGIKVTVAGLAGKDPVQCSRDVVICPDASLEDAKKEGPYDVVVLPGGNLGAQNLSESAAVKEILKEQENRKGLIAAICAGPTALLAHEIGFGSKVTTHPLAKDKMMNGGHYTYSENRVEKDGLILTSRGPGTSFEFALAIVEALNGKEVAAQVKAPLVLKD
T1 sequence (Q99497 whole entry): as above
Chain of recombinant human WT SOD1 (P00441 2-154): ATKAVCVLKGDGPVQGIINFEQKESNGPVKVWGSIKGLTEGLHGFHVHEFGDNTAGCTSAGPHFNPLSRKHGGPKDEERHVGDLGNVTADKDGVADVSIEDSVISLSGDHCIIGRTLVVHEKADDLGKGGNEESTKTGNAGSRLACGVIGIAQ

| Compound | covalent dimerization of SOD1 (change in mass of covalently linked SOD1 dimers) [1] | extent of cross-linking of SOD1 monomers [1] | denaturation temperature of DJ-1 (thermal stability) [2] | site of covalent linkage in DJ-1 dimer [3] | covalent dimerization of DJ-1 [4] | LD100 [5] [mg/kg] |
| --- | --- | --- | --- | --- | --- | --- |
| [O-][S+]1CCCCS1 (stereo not drawn) [NSC56224, 1-oxo-1,2-dithiane] | capable of covalently dimerizing SOD1 | able to cross-link the majority of SOD1 monomers in the sample | increase the measured denaturation temperature of DJ-1 relative to untreated DJ-1 | covalently linked DJ-1 dimers at Cys53; also recorded: two trypsin digest fragments of DJ-1 containing Cys53 (underlined) linked by NSC56224 | identified as a covalent dimerizer of DJ-1 | – |
| NC(=O)NN=C1CSSC1 [NSC72268] | – | – | increase the measured denaturation temperature of DJ-1 relative to untreated DJ-1 | – | identified as a specific DJ-1 covalent dimerizer; also recorded: specific covalent dimerizer of DJ-1 | – |
| CC(C)C[C@H](NC(=O)[C@H](Cc1ccccc1)NC(=O)c1cnccn1)B(O)O [bortezomib] | – | – | – | – | – | < 0.25 |
| OCC1(CO)CSSC1 [1,2-dithiolane-4,4-dimethanol] | capable of covalently dimerizing SOD1 | – | – | – | – | – |
